System: 156681-154-R-J1-PDC complex spheroid viability
Assay: Anticancer human tumor 156681-154-R-J1-PDC patient-derived melanoma cell line growth inhibition [CLK]
Settings: for IC50: curve of first compound; for viability, T/C: stronger effect = lower value
Summary of the method: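 Patient-derived tumor cells grown as complex spheroids with HUVEC endothelial cells and mesenchymal stem cells, treated with drug combinations. Concentrations descend in half-log steps from near clinical Cmax, or from 10 microM if Cmax unknown.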

[1] = second compound 0.0316 µM, first compound 0.0316 µM
[2] = second compound 0.0316 µM, first compound 0.1 µM
[3] = second compound 0.1 µM, first compound 0.0316 µM
[4] = second compound 0.1 µM, first compound 0.1 µM
[5] = second compound 0.316 µM, first compound 0.0316 µM
[6] = second compound 0.316 µM, first compound 0.1 µM
[7] = second compound 1 µM, first compound 0.0316 µM
[8] = second compound 1 µM, first compound 0.1 µM
[9] = second compound 3.16 µM, first compound 0.0316 µM
[10] = second compound 3.16 µM, first compound 0.1 µM
[11] = second compound 10 µM, first compound 0.0316 µM
[12] = second compound 10 µM, first compound 0.1 µM
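Note: spheroids exposed to the agents for seven days.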
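Throughout, for viability, T/C: 100% = DMSO vehicle control viability.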

Cn1ncnc1[C@H]1c2n[nH]c(=O)c3cc(F)cc(c23)N[C@@H]1c1ccc(F)cc1 + CN1CCN(c2cc(C(=O)Nc3cc4cc(-c5cnn(C)c5)ccc4cn3)ccn2)CC1
IC50 (second compound 0.0316 µM): > 100 nM
IC50 (second compound 0.1 µM): > 100 nM
IC50 (second compound 0.316 µM): < 0.316 nM
IC50 (second compound 1 µM): < 0.316 nM
IC50 (second compound 3.16 µM): < 0.316 nM
IC50 (second compound 10 µM): < 0.316 nM
viability, T/C (second compound 0.0316 µM, first compound 0.000316 µM): 88.8%
viability, T/C (second compound 0.0316 µM, first compound 0.001 µM): 91.7%
viability, T/C (second compound 0.0316 µM, first compound 0.00316 µM): 90.5%
viability, T/C (second compound 0.0316 µM, first compound 0.01 µM): 94.8%
viability, T/C [1]: 81.8%
viability, T/C [2]: 68.7%
viability, T/C (second compound 0.1 µM, first compound 0.000316 µM): 89%
viability, T/C (second compound 0.1 µM, first compound 0.001 µM): 84.5%
viability, T/C (second compound 0.1 µM, first compound 0.00316 µM): 75.2%
viability, T/C (second compound 0.1 µM, first compound 0.01 µM): 85.7%
viability, T/C [3]: 66.1%
viability, T/C [4]: 59.6%
viability, T/C (second compound 0.316 µM, first compound 0.000316 µM): 18.9%
viability, T/C (second compound 0.316 µM, first compound 0.001 µM): 23.7%
viability, T/C (second compound 0.316 µM, first compound 0.00316 µM): 18.3%
viability, T/C (second compound 0.316 µM, first compound 0.01 µM): 17.5%
viability, T/C [5]: 20.4%
viability, T/C [6]: 18.6%
viability, T/C (second compound 1 µM, first compound 0.000316 µM): 0.18%
viability, T/C (second compound 1 µM, first compound 0.001 µM): 2.71%
viability, T/C (second compound 1 µM, first compound 0.00316 µM): 0.14%
viability, T/C (second compound 1 µM, first compound 0.01 µM): 0.17%
viability, T/C [7]: 2.08%
viability, T/C [8]: 0.69%
viability, T/C (second compound 3.16 µM, first compound 0.000316 µM): 0.14%
viability, T/C (second compound 3.16 µM, first compound 0.001 µM): 1.63%
viability, T/C (second compound 3.16 µM, first compound 0.00316 µM): 1.37%
viability, T/C (second compound 3.16 µM, first compound 0.01 µM): 0.09%
viability, T/C [9]: 1.93%
viability, T/C [10]: 0.67%
viability, T/C (second compound 10 µM, first compound 0.000316 µM): 0.13%
viability, T/C (second compound 10 µM, first compound 0.001 µM): 3.21%
viability, T/C (second compound 10 µM, first compound 0.00316 µM): 2.34%
viability, T/C (second compound 10 µM, first compound 0.01 µM): 0.36%
viability, T/C [11]: 4.58%
viability, T/C [12]: 1.43%

COc1cccc2c1C(=O)c1c(O)c3c(c(O)c1C2=O)CC(O)(C(=O)CO)CC3OC1CC(N)C(O)C(C)O1 (centres undefined) + CNC(=O)c1ccc(Nc2nc(OC3CCCC3)c3c(-c4ccc5nc(C)oc5c4)c[nH]c3n2)c(OC)c1
IC50 (second compound 0.0316 µM): < 31.6 nM
IC50 (second compound 0.1 µM): < 31.6 nM
IC50 (second compound 0.316 µM): < 31.6 nM
IC50 (second compound 1 µM): < 31.6 nM
IC50 (second compound 3.16 µM): < 31.6 nM
IC50 (second compound 10 µM): < 31.6 nM
viability, T/C [1]: 28.9%
viability, T/C [2]: 20.6%
viability, T/C (second compound 0.0316 µM, first compound 0.316 µM): 2.62%
viability, T/C (second compound 0.0316 µM, first compound 1 µM): 0.17%
viability, T/C (second compound 0.0316 µM, first compound 3.16 µM): 0.29%
viability, T/C (second compound 0.0316 µM, first compound 10 µM): 2.75%
viability, T/C [3]: 27.2%
viability, T/C [4]: 20%
viability, T/C (second compound 0.1 µM, first compound 0.316 µM): 3.42%
viability, T/C (second compound 0.1 µM, first compound 1 µM): 0.17%
viability, T/C (second compound 0.1 µM, first compound 3.16 µM): 0.11%
viability, T/C (second compound 0.1 µM, first compound 10 µM): 0.1%
viability, T/C [5]: 30.7%
viability, T/C [6]: 18.2%
viability, T/C (second compound 0.316 µM, first compound 0.316 µM): 2.21%
viability, T/C (second compound 0.316 µM, first compound 1 µM): 0.13%
viability, T/C (second compound 0.316 µM, first compound 3.16 µM): 0.1%
viability, T/C (second compound 0.316 µM, first compound 10 µM): 0.32%
viability, T/C [7]: 18.9%
viability, T/C [8]: 9.29%
viability, T/C (second compound 1 µM, first compound 0.316 µM): 1.41%
viability, T/C (second compound 1 µM, first compound 1 µM): 0.1%
viability, T/C (second compound 1 µM, first compound 3.16 µM): 1.2%
viability, T/C (second compound 1 µM, first compound 10 µM): 1.16%
viability, T/C [9]: 17.6%
viability, T/C [10]: 6.96%
viability, T/C (second compound 3.16 µM, first compound 0.316 µM): 0.58%
viability, T/C (second compound 3.16 µM, first compound 1 µM): 0.12%
viability, T/C (second compound 3.16 µM, first compound 3.16 µM): 0.1%
viability, T/C (second compound 3.16 µM, first compound 10 µM): 0.08%
viability, T/C [11]: 16.3%
viability, T/C [12]: 6.19%
viability, T/C (second compound 10 µM, first compound 0.316 µM): 2.01%
viability, T/C (second compound 10 µM, first compound 1 µM): 0.71%
viability, T/C (second compound 10 µM, first compound 3.16 µM): 0.12%
viability, T/C (second compound 10 µM, first compound 10 µM): 0.11%
